Assay results published in the supplement of paper PMC10307832.

Experiments:
Test in all cases: relative viability (nuclei count vs DMSO), 5 days (fraction); higher = more cells survive
[1] = compound: CC[C@H](CO)Nc1nc(NCc2ccccc2)c2ncn(C(C)C)c2n1 [Seliciclib] + CS(=O)(=O)N1CCN(Cc2cc3nc(-c4cccc5[nH]ncc45)nc(N4CCOCC4)c3s2)CC1 [Pictilisib] (partner 1 µM)
Summary of the method: (§1)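 Cells from lung cancer lines were seeded into 1536-well plates and, one day later, dosed by pin tool. Treatments were either a single drug or a fixed dose of an anchor drug with five library-drug doses (not always all listed) in √10 steps. After 5 days, nuclei were stained in a one-step fixation (final 0.05% Triton X-100, 1% formaldehyde, 1 ug/ml Hoechst) and counted on 4× images, and relative viability is the treated-to-vehicle nuclei ratio, as the median of duplicate plates.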

[2] = compound: CC[C@H](CO)Nc1nc(NCc2ccccc2)c2ncn(C(C)C)c2n1 [Seliciclib] + N=C(N)NC(=N)NCCc1ccccc1 [Phenformin] (partner 250 µM)
Summary of the method: as §1

[3] = compound: CC[C@H](CO)Nc1nc(NCc2ccccc2)c2ncn(C(C)C)c2n1 [Seliciclib] + NC(=O)Nc1cc(-c2cccc(F)c2)sc1C(=O)N[C@H]1CCCNC1 [AZD7762] (partner 0.2 µM)
Summary of the method: as §1

[4] = compound: CC[C@H](CO)Nc1nc(NCc2ccccc2)c2ncn(C(C)C)c2n1 [Seliciclib] + Cc1nc(NC(=O)N2CCC[C@H]2C(N)=O)sc1-c1ccnc(C(C)(C)C(F)(F)F)c1 [Alpelisib] (partner 2 µM)
Summary of the method: as §1

Cell Line	relative viability ([1]; first compound 0.08 µM)	relative viability ([1]; first compound 0.253 µM)	relative viability ([1]; first compound 0.8 µM)	relative viability ([1]; first compound 2.53 µM)	relative viability ([1]; first compound 8 µM)	relative viability ([2]; first compound 0.08 µM)	relative viability ([2]; first compound 0.253 µM)	relative viability ([2]; first compound 0.8 µM)	relative viability ([2]; first compound 2.53 µM)	relative viability ([2]; first compound 8 µM)	relative viability ([3]; first compound 0.08 µM)	relative viability ([3]; first compound 0.253 µM)	relative viability ([3]; first compound 0.8 µM)	relative viability ([3]; first compound 2.53 µM)	relative viability ([3]; first compound 8 µM)	relative viability ([4]; first compound 0.08 µM)	relative viability ([4]; first compound 0.253 µM)	relative viability ([4]; first compound 0.8 µM)	relative viability ([4]; first compound 2.53 µM)	relative viability ([4]; first compound 8 µM)
HCC-366	0.12	0.137	0.106	0.109	0.163	0.618	0.716	0.571	0.62	0.506	0.291	0.274	0.388	0.409	0.481	0.367	0.302	0.342	0.344	0.371
HCC-827	0.953	0.963	0.811	1.03	0.925	0.4	0.422	0.402	0.435	0.351	0.211	0.19	0.217	0.209	0.172	1.01	1.01	1	1.04	0.784
HOP-62	0.778	0.61	0.563	0.588	0.62	0.665	0.699	0.75	0.713	0.576	0.63	0.407	0.394	0.923	0.822	1.03	0.811	0.942	1.05	0.829
IA-LM	0.338	0.412	0.344	0.346	0.232											0.645	0.935	0.599	0.979	0.556
LC-2-ad	0.487	0.572	0.34	0.205	0.0269	0.552	0.579	0.593	0.368	0.514	0.839	0.882	0.791	0.741	0.853	0.852	0.852	0.4	0.899	0.635
LCLC-97TM1	0.281	0.168	0.17		0.142	0.467	0.354	0.493	0.138	0.381	0.232	0.258	0.432		0.392	0.243	0.308	0.382		0.23
LCLC-103H	0.819	0.673	0.627	0.434	0.576	0.393	0.337	0.347	0.308	0.316	0.793	0.676	0.65	0.696	0.74	0.992	0.957	0.869	1.05	0.906
NCI-H520	0.305	0.326	0.287	0.318	0.252	0.61		0.571	0.634	0.38						0.897	0.682	0.831	1.02	0.931
NCI-H661	0.362	0.404	0.375	0.295	0.354	0.274	0.26	0.297	0.264	0.304						0.736	0.781	0.653	0.437	0.5
NCI-H1299	0.792	0.765	0.72	0.841	0.656											1.02	1.17	1.1	1.08	0.986
